US20240043382A1, “MODIFIED INDOLE ALKALOIDS FOR THERAPEUTIC USES” (priority 2020, published 2024)

Experiments:
[1] = target: T1, human 5-HT2C (h5-HT2C) receptor (Homo sapiens, UniProt P28335); experiment: 5-HT2C receptor functional assay (Gq-mediated calcium flux) of saliva-hydrolyzed modified indole alkaloids; assay type: cell-based; settings: 5HT2C agonist activity, compounds hydrolyzed by treatment with human saliva; for EC50: Flp-In T-REx 293 cells expressing h5-HT2C, peak calcium flux; for Emax % 5-HT (± SEM): normalized to 5-HT (100%)
T1 construct: host or cells: Flp-In T-REx 293 cells
T1 sequence (P28335 33-458): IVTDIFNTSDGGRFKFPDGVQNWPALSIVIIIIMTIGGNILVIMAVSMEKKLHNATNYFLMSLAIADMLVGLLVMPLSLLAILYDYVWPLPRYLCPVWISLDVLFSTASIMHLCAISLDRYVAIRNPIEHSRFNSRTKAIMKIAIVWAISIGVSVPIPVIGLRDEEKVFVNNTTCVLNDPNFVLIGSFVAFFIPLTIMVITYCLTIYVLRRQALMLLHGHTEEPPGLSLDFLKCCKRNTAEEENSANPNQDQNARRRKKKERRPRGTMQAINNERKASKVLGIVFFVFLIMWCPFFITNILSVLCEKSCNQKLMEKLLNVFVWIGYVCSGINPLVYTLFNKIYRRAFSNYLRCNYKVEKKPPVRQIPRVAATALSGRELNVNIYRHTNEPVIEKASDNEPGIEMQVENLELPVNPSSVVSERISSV

[2] = target: T2, human 5-HT2A (h5-HT2A) receptor (Homo sapiens, UniProt P28223); experiment: 5-HT2A receptor functional assay (Gq-mediated calcium flux) of saliva-hydrolyzed modified indole alkaloids; assay type: cell-based; settings: 5HT2A agonist activity, compounds hydrolyzed by treatment with human saliva; for EC50: Flp-In T-REx 293 cells expressing h5-HT2A, peak calcium flux; for Emax % 5-HT (± SEM): normalized to 5-HT (100%)
T2 construct: host or cells: Flp-In T-REx 293 cells
T2 sequence (P28223 whole entry): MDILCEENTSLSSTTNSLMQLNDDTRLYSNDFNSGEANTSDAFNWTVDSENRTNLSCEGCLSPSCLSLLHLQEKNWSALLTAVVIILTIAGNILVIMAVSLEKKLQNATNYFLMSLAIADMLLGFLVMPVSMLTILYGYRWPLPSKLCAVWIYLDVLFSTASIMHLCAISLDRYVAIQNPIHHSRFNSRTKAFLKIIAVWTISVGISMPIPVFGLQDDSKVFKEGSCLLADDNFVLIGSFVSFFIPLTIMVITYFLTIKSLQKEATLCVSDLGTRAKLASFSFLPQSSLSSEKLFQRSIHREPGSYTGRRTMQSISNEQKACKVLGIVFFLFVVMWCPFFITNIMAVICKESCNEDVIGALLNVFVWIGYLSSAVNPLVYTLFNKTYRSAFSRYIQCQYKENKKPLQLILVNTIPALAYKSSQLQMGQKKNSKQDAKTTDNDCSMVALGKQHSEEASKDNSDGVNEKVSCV

[3] = target: T2, human 5-HT2A (h5-HT2A) receptor; experiment: 5-HT2A receptor functional assay (calcium flux) of modified indole alkaloids digested with calf intestinal alkaline phosphatase; assay type: cell-based; settings: after 2 hours with 100 units calf intestinal alkaline phosphatase, pH 7.9, 25° C.; compared to 5-HT
Method: 1 mM of 4-3-(2-(dipropylamino)ethyl)-1H-indol-4-yl dihydrogen phosphate (Compound A) was incubated with 100 units of calf intestinal alkaline phosphatase for 2 hours in buffer containing 50 mM Potassium acetate, 20 mM Tris-acetate, 10 mM Magnesium acetate, and 100 μg/ml BSA at pH 7.9 and 25° C. 1 mM of 4-3-(2-(diisopropylamino)ethyl)-1H-indol-4-yl dihydrogen phosphate (Compound B) was incubated with 100 units of calf intestinal alkaline phosphatase for 2 hours in buffer containing 50 mM Potassium acetate, 20 mM Tris-acetate, 10 mM Magnesium acetate, and 100 μg/ml BSA at pH 7.9 and 25° C. The resulting solutions containing dephosphorylated products were used in a 5-HT2A receptor functional assay. […]
Before the experiment, plates were allowed to equilibrate to room temperature, and calcium flux was measured using a […] cellular screening system (Molecular Devices, Sunnyvale, CA). Plates were read for fluorescence initially for 10 s (1 read per second) to establish a baseline and then stimulated with drug dilutions or buffer and read for an additional 120 s. Peak fluorescence in each well was normalized to the maximum fold increase over baseline. […] Data were analyzed using the sigmoidal dose-response function of Prism 5.0 or 8.0 (GraphPad Software, San Diego, CA). Relative activity (RA) was expressed as the logarithm of the ratio of Emax over EC50 parameter estimates. […]

[4] = Digestion of modified indole alkaloids with human salivary samples (LC-MS); assay type: in vitro ADME; settings: 100 μM compound, 50 μL human saliva, 2 hours at 37° C., pH 7.5
Method: Human saliva samples were collected 25 minutes before food intake after 8 hours fasting from an adult subject with no clinical symptoms. For saliva collection, saliva samples were obtained by passive drool into sterile 10 mL centrifuge tubes over a 5-min period. Immediately after collection, saliva samples were centrifuged (500 g for 10 min at 4° C.) and the supernatant was recovered and used immediately or stored at −80° C. until further use.
Eleven 100-μL reaction mixtures were prepared, consisting of: • 50 mM HEPES pH 7.5 • 50 mM NaCl • 100 μM modified indole alkaloid product (from Reactions 3, 24, 39-47, respectively) • 50 μL, of human saliva sample • 2 mM calcium chloride • 5 mM magnesium chloride
The reaction mixtures were digested for 2 hours at 37° C., and heated to 80° C. for 5 minutes to terminate the reactions. The reaction mixtures were then centrifuged at 30,000 ref and the supernatant transferred to a fresh sample tube.
One microliter of the sample was injected onto a ZORBAX StableBond-C18, 1.8 um, 2.1×50 mm column at 20° C. using a 0.3 mL/min flow rate and major ion species were detected with a 6520 Accurate-Mass Q-TOF LC-MS (Agilent) in positive mode. The mobile phase consisted of a mixture of 0.1% formic acid in acetonitrile (v/v) and 0.1% formic acid in water (v/v) was eluted under the following gradient conditions (shown in relation to acetonitrile content): 0 min-10%, 6 min-100%, 7 min-10%, 14 min-10%. The mobile phase was delivered at a flow rate of 0.3 mL/min and the total analytical run time was 14 min.

SMILES	EC50 [1]	Emax % 5-HT (± SEM) [1]	EC50 [2]	Emax % 5-HT (± SEM) [2]	functional agonism of 5HT2A receptor, peak calcium flux response (FIG. 5) [3]	conversion by human saliva to 4-hydroxy-N,N-diisopropyltryptamine (LC-MS) [4]
CCN(C)CCc1c[nH]c2cccc(O[C@H]3O[C@H](CO)[C@@H](O)[C@H](O)[C@H]3O)c12 (stereo in doubt) [Hydrolyzed Compound A-1, 2-((3-(2-(ethyl(methyl)amino)ethyl)-1H-indol-4-yl)oxy)-6-(hydroxymethyl)tetrahydro-2H-pyran-3,4,5-triol]	30.1 nM	89.9 ± 2.1 % 5-HT	4.01 nM	96.7 ± 1.1 % 5-HT	–	–
CCCN(C)CCc1c[nH]c2cccc(O[C@H]3O[C@H](CO)[C@@H](O)[C@H](O)[C@H]3O)c12 (stereo in doubt) [Hydrolyzed Compound A-2, 2-(hydroxymethyl)-6-((3-(2-(methyl(propyl)amino)ethyl)-1H-indol-4-yl)oxy)tetrahydro-2H-pyran-3,4,5-triol]	47.8 nM	90.7 ± 1.5 % 5-HT	3.83 nM	98.0 ± 1.1 % 5-HT	–	–
CCN(CC)CCc1c[nH]c2cccc(O[C@H]3O[C@H](CO)[C@@H](O)[C@H](O)[C@H]3O)c12 (stereo in doubt) [Hydrolyzed Compound A-4, 2-((3-(2-(diethylamino)ethyl)-1H-indol-4-yl)oxy)-6-(hydroxymethyl)tetrahydro-2H-pyran-3,4,5-triol]	258 nM	80.1 ± 1.9 % 5-HT	6.48 nM	100.1 ± 1.1 % 5-HT	–	–
CCCN(CCC)CCc1c[nH]c2cccc(O[C@H]3O[C@H](CO)[C@@H](O)[C@H](O)[C@H]3O)c12 (stereo in doubt) [Hydrolyzed Compound A-6, 2-((3-(2-(dipropylamino)ethyl)-1H-indol-4-yl)oxy)-6-(hydroxymethyl)tetrahydro-2H-pyran-3,4,5-triol]	214 nM	84.2 ± 1.0 % 5-HT	1.65 nM	103.2 ± 1.0 % 5-HT	–	–
CC(C)N(CCc1c[nH]c2cccc(O[C@H]3O[C@H](CO)[C@@H](O)[C@H](O)[C@H]3O)c12)C(C)C (stereo in doubt) [Hydrolyzed Compound A-7, 2-((3-(2-(diisopropylamino)ethyl)-1H-indol-4-yl)oxy)-6-(hydroxymethyl)tetrahydro-2H-pyran-3,4,5-triol]	1550 nM	94.4 ± 1.2 % 5-HT	6.81 nM	103 ± 1.2 % 5-HT	–	–
C=CCN(C)CCc1c[nH]c2cccc(O[C@H]3O[C@H](CO)[C@@H](O)[C@H](O)[C@H]3O)c12 (stereo in doubt) [Hydrolyzed Compound A-8, 2-((3-(2-(allyl(methyl)amino)ethyl)-1H-indol-4-yl)oxy)-6-(hydroxymethyl)tetrahydro-2H-pyran-3,4,5-triol]	49.2 nM	81.5 ± 2.4 % 5-HT	3.66 nM	102 ± 1.0 % 5-HT	–	–
CN(CCc1c[nH]c2cccc(O[C@H]3O[C@H](CO)[C@@H](O)[C@H](O)[C@H]3O)c12)C1CC1 (stereo in doubt) [Hydrolyzed Compound A-9, 2-((3-(2-(cyclopropyl(methyl)amino)ethyl)-1H-indol-4-yl)oxy)-6-(hydroxymethyl)tetrahydro-2H-pyran-3,4,5-triol]	149 nM	79.1 ± 6.1 % 5-HT	5.1 nM	99.4 ± 2.0 % 5-HT	–	–
CCCN(CCC)CCc1c[nH]c2cccc(OP(=O)(O)O)c12 [Compound A, 4-3-(2-(dipropylamino)ethyl)-1H-indol-4-yl dihydrogen phosphate]	–	–	–	–	5HT2A agonism	–
CC(C)N(CCc1c[nH]c2cccc(OP(=O)(O)O)c12)C(C)C [Compound B, 4-3-(2-(diisopropylamino)ethyl)-1H-indol-4-yl dihydrogen phosphate]	–	–	–	–	5HT2A agonism	–
CC(C)N(CCc1c[nH]c2cccc(OC(=O)CC(=O)O)c12)C(C)C [Compound D, 3-((3-(2-(diisopropylamino)ethyl)-1H-indol-4-yl)oxy)-3-oxopropanoic acid]	–	–	–	–	–	completely hydrolyzed
CC(=O)CC(=O)Oc1cccc2[nH]cc(CCN(C(C)C)C(C)C)c12 [Compound E, 3-(2-(diisopropylamino)ethyl)-1H-indol-4-yl 3-oxobutanoate]	–	–	–	–	–	completely hydrolyzed
CCCN(CC)CCc1c[nH]c2cccc(O[C@H]3O[C@H](CO)[C@@H](O)[C@H](O)[C@H]3O)c12 [Hydrolyzed Compound A-5, 2-((3-(2-(ethyl(propyl)amino)ethyl)-1H1-indol-4-yl)oxy)-6-(hydroxymethyl)tetrahydro-2H-pyran-3,4,5-triol]	117 nM	89.4 ± 2.6 % 5-HT	3.16 nM	99.4 ± 1.2 % 5-HT	–	–
CC(C)N(CCc1c[nH]c2cccc(O[C@H]3O[C@H](CO)[C@@H](O)[C@H](O)[C@H]3O)c12)C(C)C [Hydrolyzed Compound A-7, 2-((3-(2-(diisopropylamino)ethyl)-1H-indol-4-yl)oxy)-6-(hydroxymethyl)tetrahydro-2H-pyran-3,4,5-triol]	–	–	–	–	–	completely deglycosylated
